The subject of data set [1] is Phaedon cochleariae larvae. As to the kind of experiment: Efficacy against Phaedon cochleariae larvae, cabbage leaf dip test. The note with it: for mortality at 1 ppm: read-out: Mortality in % after 4d, dose 1 ppm.
For another data set, the system named is Myzus persicae. As to the kind of experiment: Efficacy against Myzus persicae, cabbage leaf dip test. The note with it: foliar. Format: in vivo. The source says:
(§1) Solvent: 7 parts by weight of dimethylformamide

In the next data set the test system is Aphis gossypii. Put plainly: Efficacy against Aphis gossypii, cotton leaf dip test. Format: in vivo. To be noted: foliar, 24 h, after 1 d.
Text: as §1

For a further data set, the system named is Gibberella zeae. It counts as cell-based. The note with it: dose 3 ppm; 4 days of incubation, optical density.
A further data set has as its system Phytophthora cryptogea. Put plainly: Efficacy against Phytophthora cryptogea (Test in vitro - Microtest). To be noted: dose 0.03 ppm; 4 days of incubation, optical density.
The subject of the next data set is Pyricularia oryzae. It counts as cell-based. The note with it: dose 0.015 ppm; 3 days of incubation.
Setting [2] is: Phaedon cochleariae, in Brassica oleracea, foliar, 96 h, read-out: Mortality in % after 4d, dose 4 ppm, after 4 d.
The mark [3] stands for this setting: Phaedon cochleariae, in Brassica oleracea, foliar, 144 h, read-out: Mortality in % after 6d, dose 4 ppm, after 6 d.
Setting [4] is: 24 h, after 1 d, read-out: Mortality in % after 1d.
The mark [5] stands for this setting: 144 h, after 6 d, read-out: Mortality in % after 6d.
Where [6] appears, read: Phaedon cochleariae, in Brassica oleracea, foliar, 96 h, after 4 d.
Where [7] appears, read: Phaedon cochleariae, in Brassica oleracea, foliar, 144 h, read-out: Mortality in % after 6d, dose 200 ppm, after 6 d.

Where “and” joins values, the source holds several entries; their conditions need not be identical. Equal entries are not always repeated. Where two headings read alike, the source gives them in different places.

Procedure for Phytophthora cryptogea: The microtest was performed in liquid medium with potato-dextrose broth (PDB) using microtitre plates.
A mycelium suspension of Phytophthora cryptogea was used for inoculation. After 4 days of incubation by darkness under shaking (10 Hrz), the optical density in each cavity was evaluated with the aid of a microtitre plate reader.

With “5-fluoro-1,3-dimethyl-N-[2-(1,3-dimethyl)-but-2-ol-yl]-1H-pyrazole-4-carboxamide [Compound A]”, the “Mortality in % after 4d” value in data set [1] (dose 200 ppm, after 4 d) was 0%.
The mortality is the percentage killed. `CN/C(=N\[N+](=O)[O-])NCc1cnc(Cl)s1` [Clothianidin, clothianidin]: the mortality at 4 ppm in data set [1] (setting [2]) worked out at 60%; in data set [1] (setting [3]), 20%. Moreover, the mortality at 0.8 ppm in data set [1] (Phaedon cochleariae, in Brassica oleracea, foliar, 144 h, read-out: Mortality in % after 6d, dose 0.8 ppm, after 6 d) is 0%; in the data set with Myzus persicae (setting [4]) it was 70%; in the data set on Myzus persicae (setting [5]), 55%. In data set [1] (dose 4 ppm, after 6 d), the “Mortality in % after 6d” value is listed as 40%. For the same molecule, the mortality at 0.16 ppm with Myzus persicae (setting [4]) came out at 10%; in the data set with Myzus persicae (setting [5]) it was 30%.
Turning to `O=C(NCCc1ncc(C(F)(F)F)cc1Cl)c1ccccc1C(F)(F)F` [Compound 1, N-{2-[3-chloro-5-(trifluoromethyl)-2-pyridinyl]ethyl}-2-trifluoromethylbenzamide], the mortality at 200 ppm with Aphis gossypii (dose 200 ppm) is 10%; in data set [1] (setting [7]), 0%; with Myzus persicae (setting [4]), 0%; in the data set on Myzus persicae (setting [5]), 0%. Also, the mortality at 1 ppm in data set [1] (setting [6]) amounted to 0%. The mortality at 0.2 ppm in data set [1] (Phaedon cochleariae, in Brassica oleracea, foliar, 144 h, read-out: Mortality in % after 6d, dose 0.2 ppm, after 6 d) came to 0%. In addition, in data set [1] (dose 200 ppm, after 4 d), the “Mortality in % after 4d” value is 5% and 15%. For the same molecule, the mortality at 20 ppm in the data set on Myzus persicae (24 h, dose 20 ppm, after 1 d) was 0%. In addition, the Efficacy in % was found to be 41% with Gibberella zeae and 13% in the data set on Phytophthora cryptogea.
For `Nc1nc(N)nc(NC2CC2)n1` [Cyromazine, cyromazine], the mortality at 20 ppm in data set [1] (Phaedon cochleariae, in Brassica oleracea, foliar, 144 h, read-out: Mortality in % after 6d, dose 20 ppm, after 6 d) was 5%.
In the case of `CCOP(=O)(NC(C)C)Oc1ccc(SC)c(C)c1` (stereo not shown) [Fenamifos, fenamifos], the “Mortality in % after 6d” value in data set [1] (dose 20 ppm, after 6 d) worked out at 75%.
In the data set with Aphis gossypii (dose 100 ppm), `N#Cc1nn(-c2c(Cl)cc(C(F)(F)F)cc2Cl)c(N)c1[S+]([O-])C(F)(F)F` (stereo not shown) [Fipronil, fipronil] displayed a mortality at 100 ppm of 40%.
With `N#Cc1c[nH]cc1-c1cccc2c1OC(F)(F)O2` [Fludioxonil, fludioxonil], the mortality at 200 ppm was found to be 5% in data set [1] (setting [7]) and 0% in the data set on Myzus persicae (setting [4]).
For `O=[N+]([O-])NC1=NCCN1Cc1ccc(Cl)nc1` [Imidacloprid, imidacloprid], in data set [1] (setting [2]), the mortality at 4 ppm is 35%. Moreover, in the data set on Myzus persicae (setting [4]), the mortality at 0.16 ppm was determined as 30%. For the same molecule, in the data set on Gibberella zeae, the Efficacy in % came out at 22%.
For `CC(C)C1CCC(Cc2ccc(Cl)cc2)C1(O)Cn1cncn1` (stereo not shown) [Ipconazole, ipconazole], the mortality at 200 ppm with Myzus persicae (setting [4]) was 0%.
In turn, `OC(Cc1ccccc1Cl)(Cn1nc[nH]c1=S)C1(Cl)CC1` (stereo not shown) [Prothioconazole, prothioconazole] registered an Efficacy in % with Pyricularia oryzae of 12%. Moreover, the mortality at 1 ppm in data set [1] (setting [6]) is 0%. Moreover, the mortality at 200 ppm in data set [1] (Phaedon cochleariae, in Brassica oleracea, foliar, 96 h, read-out: Mortality in % after 4d, dose 200 ppm, after 4 d) stood at 0%; in the data set on Myzus persicae (setting [5]), 0%.
Regarding `CC1=NNC(=O)N(/N=C/c2cccnc2)C1` [Pymetrozine, pymetrozine], the mortality at 0.8 ppm in the data set on Myzus persicae (setting [4]) was 30%.
Consider `CC(C)(C)C(O)(CCc1ccc(Cl)cc1)Cn1cncn1` (stereo not shown) [Tebuconazole, tebuconazole], for which the mortality at 200 ppm in the data set on Myzus persicae (setting [5]) amounted to 0%.
In the case of `N#C/N=C1\SCCN1Cc1ccc(Cl)nc1` [Thiacloprid, thiacloprid], the mortality at 4 ppm in data set [1] (setting [3]) is 25%.
Regarding `CC(C)(C)C(O)C(Oc1ccc(Cl)cc1)n1cncn1` (stereo not shown) [Triadimenol, triadimenol], the mortality at 0.4 ppm in data set [1] (Phaedon cochleariae, in Brassica oleracea, foliar, 144 h, read-out: Mortality in % after 6d, dose 0.4 ppm, after 6 d) came out at 0%. Moreover, the mortality at 200 ppm with Myzus persicae (setting [4]) was 10%.
For `CON=C(C(=O)OC)c1ccccc1CON=C(C)c1cccc(C(F)(F)F)c1` [Trifloxystrobin, trifloxystrobin], the mortality at 200 ppm in the data set on Myzus persicae (setting [5]) worked out at 20%.
In the case of spinosad, the “Mortality in % after 4d” value in data set [1] (dose 0.8 ppm, after 4 d) was found to be 50%. The same molecule returned an Efficacy in % in the data set with Phytophthora cryptogea of 5%.

These data come from patent US9408385B2, “Pesticidal composition comprising a pyridylethylbenzamide derivative and an insecticide compound” (priority 2006, dated 2016).
